Assay [1] addresses T1, LXRα ligand binding domain (Homo sapiens, UniProt Q13133).
T1 construct: His tag; made in house
T1 sequence (Q13133 183-447): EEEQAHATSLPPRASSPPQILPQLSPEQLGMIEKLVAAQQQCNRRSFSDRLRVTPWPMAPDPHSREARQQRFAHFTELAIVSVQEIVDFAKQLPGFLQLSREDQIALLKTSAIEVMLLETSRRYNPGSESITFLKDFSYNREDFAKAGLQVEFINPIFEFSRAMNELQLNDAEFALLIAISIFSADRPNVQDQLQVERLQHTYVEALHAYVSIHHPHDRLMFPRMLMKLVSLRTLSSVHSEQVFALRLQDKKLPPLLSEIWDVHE
T1 sequence (Q15788 676-700 partner): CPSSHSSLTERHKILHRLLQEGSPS
Kind of assay: Ligand Sensing Assay for LXRα agonist activity. The following applies: 1 μM; over a background reading of 10000 fluorescence units. Format: biochemical. The procedure: Test Method 2: Ligand Sensing Assay for LXRα Agonist Activity
The assay for LXRα was run according to the procedures of Test Method 1, above using his-tagged LXRα ligand binding domain (amino acids 183-447 of Genbank accession number U22662, with the 14th amino acid corrected to A from R). In this assay 1 μM 24(S),25-epoxycholesterol gave a reading of 20000 fluorescence units over a background reading of 10000 fluorescence units.

In assay [2] the target is T2, human LXRβ ligand binding domain (Homo sapiens, UniProt P55055).
T2 construct: made in house; host or cells: E. coli BL21 (DE3), vector pRSETa
T2 sequence (P55055 184-460 limits assumed): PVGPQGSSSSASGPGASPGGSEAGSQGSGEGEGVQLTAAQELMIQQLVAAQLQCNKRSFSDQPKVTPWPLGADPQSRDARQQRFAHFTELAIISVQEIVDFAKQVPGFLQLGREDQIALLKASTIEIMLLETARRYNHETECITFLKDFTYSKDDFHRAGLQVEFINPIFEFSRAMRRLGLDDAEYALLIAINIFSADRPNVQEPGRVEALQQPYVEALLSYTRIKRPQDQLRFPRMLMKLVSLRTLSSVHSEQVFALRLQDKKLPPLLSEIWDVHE
T2 sequence (Q15788 676-700 partner limits assumed): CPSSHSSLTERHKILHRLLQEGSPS
The assay is described as follows: Ligand Sensing Assay (LiSA) for LXRβ agonist activity (recruitment of SRC1-derived peptide). The conditions noted are these: 1 μM; over a background reading of 10000 fluorescence units. It counts as biochemical. An excerpt: The term “LXR modulator,” as used herein, means a small molecule that modulates the biological activities of LXRα and/or LXRβ. More specifically, such an LXR modulator either enhances or inhibits the biological activities of LXR. If such a modulator partially or completely enhances the biological activities of LXR, it is a partial or complete LXR agonist, respectively. […] Preferably, the LXR modulator compounds of this invention are LXR agonists. As used herein, the term “LXR agonist” refers to compounds which achieve at least 20% activation of LXR relative to 24(S),25-epoxycholesterol, the appropriate positive control in the HTRF assay described below in Test Method 1. It should be noted that to show activity in the specific Test Methods described herein, the LXR modulator compound must bind to the LXR nuclear receptor and recruit the specific peptide derived from the coactivator protein, SRC1, to the modulator compound-bound LXR complex. […]
Typically 25-50 g of cell paste is resuspended in 250-500 mL TBS, pH 8.0 (25 mM Tris, 150 mM NaCl). […] After washing to baseline absorbance with equilibration buffer, the column is washed with approximately one column volume of TBS pH […] containing 95 mM imidazole. […] Afterwashing to baseline absorbance with the dilution buffer the protein is eluted with a gradient from 50-500 mM NaCl. […]

Regarding `C[C@H](CC[C@@H]1OC1(C)C)[C@H]1CC[C@H]2[C@@H]3CC=C4C[C@@H](O)CC[C@]4(C)[C@H]3CC[C@]12C` [24(S),25-epoxycholesterol], the reading in assay [1] and in assay [2] was 20000 fluorescence units each time.

Source of the values: patent US7365085B2, “Compounds and methods” (SmithKline Beecham Corporation, priority 2002, dated 2008).
